Test results taken from paper PMC11475369, “Exploring the Potential of Synthetic Cannabinoids: Modulation of Biological Activity of Normal and Cancerous Human Colon Epithelial Cells” (Cells, 2024).

What was measured:
[1] = test system: HT29 cells; assay: Nitric oxide (NOx) release in HT29 culture, Griess method; type: cell-based, human; conditions: HT29 cancer cells, 0–200 μg/mL, 24 h
Procedure: In this spectrophotometric method, the stable end products (nitrate and nitrite) were analyzed in the normal and tumor culture supernatants after 24 h of incubation of the cells with the cannabinoids in the concentration range of 0–200 μg/mL. The Griess reaction was applied. This method involves a 2-step reaction, whose product is a red-pink azo dye. The amount of this dye is directly proportional to the amount of NO. The cells were cultured for 24 h in 24-well plates (1 mL/well, density 1 × 10^5 cells/mL); next, after withdrawing the culture fluid, the tested cannabinoids were added to the wells at a volume of 1 mL/well and the incubation was carried out for another 24 h. After the incubation, the culture media were collected and frozen at −80 °C for no longer than 1 month. For calibration and quantitative analysis, the standard curve was prepared using 0.5–25 μM sodium nitrite (NaNO2). Thawed and centrifuged (5000 rpm/5 min.) supernatant samples and the standard were poured into a 96-well flat-bottomed plate at 100 µL/well. Each sample was analyzed in triplicate. […] Finally, the absorbance of the samples was spectrophotometrically read at 570 nm using an EL800 Universal Microplate Reader (BioTek Instruments, Winooski, VT, USA).

[2] = test system: CCD 841 CoTr cells; assay: Nitric oxide (NOx) release in CCD 841 CoTr culture, Griess method; type: cell-based, human; conditions: CCD 841 CoTr normal cells, 0–200 μg/mL, 24 h
Procedure: In this spectrophotometric method, the stable end products (nitrate and nitrite) were analyzed in the normal and tumor culture supernatants after 24 h of incubation of the cells with the cannabinoids in the concentration range of 0–200 μg/mL. The Griess reaction was applied. This method involves a 2-step reaction, whose product is a red-pink azo dye. The amount of this dye is directly proportional to the amount of NO. The cells were cultured for 24 h in 24-well plates (1 mL/well, density 1 × 10^5 cells/mL); next, after withdrawing the culture fluid, the tested cannabinoids were added to the wells at a volume of 1 mL/well and the incubation was carried out for another 24 h. After the incubation, the culture media were collected and frozen at −80 °C for no longer than 1 month. For calibration and quantitative analysis, the standard curve was prepared using 0.5–25 μM sodium nitrite (NaNO2). Thawed and centrifuged (5000 rpm/5 min.) supernatant samples and the standard were poured into a 96-well flat-bottomed plate at 100 µL/well. Each sample was analyzed in triplicate. Subsequently, 100 µL/well of Griess reagent (1% sulfanilamide/0.1% N-(1-naphthyl)ethylenediamine dihydrochloride) in 3% H3PO4 was added to all wells and incubated at room temperature for 10 min. Finally, the absorbance of the samples was spectrophotometrically read at 570 nm using an EL800 Universal Microplate Reader (BioTek Instruments, Winooski, VT, USA).

SMILES	Effect on release of nitric oxide NOx (in words) [1]	Effect on release of nitric oxide NOx (in words) [2]
CCCCCc1cc(O)c2c(c1)OC(C)(CCC=C(C)C)C=C2 (stereo not shown) [CBC, cannabichromene]	reduction in NOx levels with increasing cannabinoid concentration	reduction in NOx levels with increasing cannabinoid concentration
CCCCCc1cc2c3c(c1)OC(C)(C)C1CCC(C)(CC31)O2 (stereo not shown) [CBT, cannabicitran]	statistically insignificant stimulating effect	reduced the level of this molecule
